Values of other authors, collected in US20020177585A1, “Uses of targeted oxidative therapeutic formulation in arteriosclerosis” (priority 2001, published 2002).

Tests used:
[1] = system: peroxide-sensitive E. coli; conditions: infused into the blood of infected rabbits
E. coli = conditions: increasing concentration of peroxide ex-vivo

For `OO` [hydrogen peroxide, Hydrogen peroxide], the bactericidal effect [1] is given as “no bactericidal effect” and the direct bactericidal activity (E. coli) is given as “no evidence of direct bactericidal activity”.
